According to patent US11560400B2, “Salts of diphosphate phosphoramidate of nucleosides as anticancer compounds” (NuCana plc, priority 2017, dated 2023):
Structures can show the parent of a compound that is named as a salt. Where two headings read alike, the source gives them in different places.

Columns and labels:
HL-60 = assay: CellTiterGlo cell viability assay, HL-60; assay type: cell-based; settings: Homo sapiens, HL-60, 72 h; for EC50: read-out: Ab EC50; for inhibition at 198 µM: percentage inhibition at the highest concentration tested, read-out: Top Inh
Protocol: (§1) A subset of compounds of the invention were assayed for their cytotoxic activity in an array of different solid tumours and haematological malignancies using the following assay.
(§2) In vitro viability assay were performed to assess the effects of compounds on cell viability in selected cell lines over 72 h using the CellTiterGlo (CTG, Promega-G7573) assay. The tests were performed in duplicates with treatment of compounds at 9 points, 3.16 folds titration in 96 well plates over ˜72 h. The compound starting concentrations were 198 μM. Cell viability assay using CellTiterGlo in 96-well plate were performed. Compound treatment 72 h, standard growth conditions, duplicates. Compounds were dissolved to 40 mM with thawed […]. Compounds were serially diluted at 3.16 fold in thawed DMSO, and warmed to 37° C. before being dissolved in media (2 μL+200 μL). After compounds were dissolved in media, media containing compounds were warmed to 37° C. in incubator and then compounds in media were added to cell plates (50 μL+50 μL) in duplicates. The compounds' final concentrations were from 198 μM to 19.8 nM. All compound solubilities were checked and recorded again, then the plates were transferred to CO2 tissue culture incubator immediately and incubated for 3 days. DMSO final concentration is 0.5%. The parent nucleoside in each case was tested as a comparator, as was an exemplary ProTide. The drugs of the ProTide class that were tested were as follows:
(§3) The following cell lines were tested and are referred to in the Table 1 below:
(§4) In Tables 2, 3 and 4, ‘Ab EC50’ refers to the absolute EC50 and ‘Top inhibit’ refers to the percentage inhibition achieved at the highest concentration tested.

MOLT-4 = assay: CellTiterGlo cell viability assay, MOLT-4; assay type: cell-based; settings: Homo sapiens, MOLT-4, 72 h; for inhibition at 198 µM: percentage inhibition at the highest concentration tested, read-out: Top Inh; for EC50: read-out: Ab EC50
Protocol: as §1, §2, §3, §4

MCF-7 = assay: CellTiterGlo cell viability assay, MCF-7; assay type: cell-based; settings: Homo sapiens, MCF7, 72 h, MCF-7, 72 h; for inhibition at 198 µM: percentage inhibition at the highest concentration tested, read-out: Top Inhibit; for EC50: Table 4 classes, read-out: Ab EC50
Protocol: as §1, §2, §3, §4

HepG2 = assay: CellTiterGlo cell viability assay, HepG2; assay type: cell-based; settings: Homo sapiens, HepG2, 72 h; for EC50: read-out: Ab EC50; for inhibition at 198 µM: percentage inhibition at the highest concentration tested, read-out: Top Inhibit
Protocol: as §1, §2, §3, §4

K562 = assay: CellTiterGlo cell viability assay, K562; assay type: cell-based; settings: Homo sapiens; for inhibition at 198 µM: percentage inhibition at the highest concentration tested, read-out: Top Inh; for EC50: read-out: Ab EC50
Protocol: as §1, §2, §3, §4

RPMI-8226 = assay: CellTiterGlo cell viability assay, RPMI-8226; assay type: cell-based, Human; settings: Homo sapiens, RPMI-8226, 72 h; for EC50: read-out: Ab EC50; for inhibition at 198 µM: percentage inhibition at the highest concentration tested, read-out: Top Inh
Protocol: as §1, §2, §3, §4

CCRF-CEM = assay: CellTiterGlo cell viability assay, CCRF-CEM; assay type: cell-based; settings: Homo sapiens, 72 h; for EC50: read-out: Ab EC50; for inhibition at 198 µM: percentage inhibition at the highest concentration tested, read-out: Top Inh
Protocol: as §1, §2, §3, §4

HT29 = assay: CellTiterGlo cell viability assay, HT29; assay type: cell-based; settings: Homo sapiens, HT-29, 72 h, HT29, 72 h; for EC50: read-out: Ab EC50; for inhibition at 198 µM: percentage inhibition at the highest concentration tested, read-out: Top Inhibit
Protocol: as §1, §2, §3, §4

KG-1 = assay: CellTiterGlo cell viability assay, KG-1; assay type: cell-based; settings: Homo sapiens, KG-1, 72 h; for EC50: read-out: Ab EC50; for inhibition at 198 µM: percentage inhibition at the highest concentration tested, read-out: Top Inhibit
Protocol: as §1, §2, §3, §4

RL = assay: CellTiterGlo cell viability assay, RL; assay type: cell-based; settings: Homo sapiens, 72 h, percentage inhibition at the highest concentration tested, read-out: Top Inh
Protocol: as §1, §2, §3, §4

OVCAR 3 = assay: CellTiterGlo cell viability assay, OVCAR 3; assay type: cell-based; settings: Homo sapiens; for inhibition at 198 µM: OVCAR-3, 72 h, percentage inhibition at the highest concentration tested, read-out: Top Inhibit; for EC50: OVCAR 3, 72 h, read-out: Ab EC50
Protocol: as §1, §2, §3, §4

[1] = K562, K 562, 72 h, Table 4 classes

| Structure (SMILES) | inhibition at 198 µM (HL-60) [%] | inhibition at 198 µM (MOLT-4) [%] | inhibition at 198 µM (MCF-7) [%] | inhibition at 198 µM (HepG2) [%] | inhibition at 198 µM (K562; K562, 72 h) [%] | inhibition at 198 µM (RPMI-8226) [%] | inhibition at 198 µM (CCRF-CEM) [%] | inhibition at 198 µM (HT29) [%] | inhibition at 198 µM (KG-1) [%] | inhibition at 198 µM (RL) [%] | inhibition at 198 µM (OVCAR 3) [%] | EC50 (HL-60; Table 4 classes) [nM] | EC50 (MOLT-4; Table 4 classes) [nM] | EC50 (HepG2; Table 4 classes) [nM] | EC50 (K562; [1]) [nM] | EC50 (RPMI-8226; Table 4 classes) [nM] | EC50 (CCRF-CEM; Table 4 classes) [nM] | EC50 (HT29; Table 4 classes) [nM] | EC50 (KG-1; Table 4 classes) [nM] | EC50 (OVCAR 3; Table 4 classes) [nM] | other results |
| --- | --- | --- | --- | --- | --- | --- | --- | --- | --- | --- | --- | --- | --- | --- | --- | --- | --- | --- | --- | --- | --- |
| CC(C)OC(=O)[C@H](C)NP(=O)(Oc1ccccc1)OP(=O)(O)OC[C@H]1O[C@@H](n2cnc3c(N)nc(Cl)nc32)[C@H](F)C1O (stereo partly drawn) [Example 15, 2-Chloro-9-(2′-Deoxy-2′-fluoro-β-D-arabinofuranosyl)adenine-5′-O-[1-phenyl(isopropoxy-L-alaninyl)] Diphosphate Triethylammonium Salt] | 96 | 90 | 47 | 51 | 36 | 80 | 99 | 69 | 92 | 49 | 41 | – | – | – | – | – | – | – | – | – | EC50 (HL-60; absolute EC50, numeric values): 60 nM; EC50 (MOLT-4; absolute EC50, numeric values): 30 nM; EC50 (HepG2; absolute EC50, numeric values): 370 nM; EC50 (K562; K562, 72 h, absolute EC50, numeric values): > 198000 nM; EC50 (RPMI-8226; absolute EC50, numeric values): 30300 nM; EC50 (CCRF-CEM; absolute EC50, numeric values): < 20 nM; EC50 (HT29; absolute EC50, numeric values): 330 nM; EC50 (KG-1; absolute EC50, numeric values): 90 nM; EC50 (OVCAR 3; absolute EC50, numeric values): > 198000 nM |
| CCCCCCOC(=O)[C@H](C)NP(=O)(Oc1ccccc1)OP(=O)(O)OC[C@H]1O[C@@H](n2cnc3c(N)nc(Cl)nc32)[C@H](F)C1O (stereo partly drawn) [Example 18, 2-Chloro-9-(2′-Deoxy-2′-fluoro-β-D-arabinofuranosyl)adenine-5′-O-[1-phenyl(hexoxy-L-alaninyl)] Diphosphate Triethylammonium Salt] | 96 | 88 | 44 | 53 | 40 | 84 | 99 | 66 | 91 | 48 | 47 | < 200 | < 200 | 200 to 1000 | > 10000 | > 10000 | < 200 | 200 to 1000 | < 200 | > 10000 | – |
| C[C@@H](NP(=O)(Oc1ccccc1)OP(=O)(O)OC[C@H]1O[C@@H](n2cnc3c(N)nc(Cl)nc32)[C@H](F)C1O)C(=O)OCC(C)(C)C (stereo partly drawn) [Example 14, 2-Chloro-9-(2′-Deoxy-2′-fluoro-β-D-arabinofuranosyl)adenine-5′-O-[phenyl(neopentoxy-D-alaninyl)] Diphosphate Triethylammonium Salt] | 96 | 95 | 48 | 52 | 36 | 78 | 99 | 71 | 93 | 49 | 43 | < 200 | < 200 | 200 to 1000 | > 10000 | > 10000 | < 200 | 200 to 1000 | < 200 | > 10000 | – |
| COC(=O)[C@H](C)NP(=O)(Oc1ccccc1)OP(=O)(O)OC[C@H]1O[C@@H](n2cnc3c(N)nc(Cl)nc32)[C@H](F)C1O (stereo partly drawn) [Example 16, 2-Chloro-9-(2′-Deoxy-2′-fluoro-β-D-arabinofuranosyl)adenine-5′-O-[1-phenyl(methoxy-L-alaninyl)] Diphosphate Triethylammonium Salt] | 96 | 97 | 47 | 53 | 33 | 84 | 99 | 71 | 93 | 49 | 44 | < 200 | < 200 | 200 to 1000 | > 10000 | > 10000 | < 200 | 200 to 1000 | < 200 | > 10000 | – |
| CC(C)(NP(=O)(Oc1ccccc1)OP(=O)(O)OC[C@H]1O[C@@H](n2cnc3c(N)nc(Cl)nc32)[C@H](F)C1O)C(=O)OCc1ccccc1 (stereo partly drawn) [Example 10, 2-Chloro-9-(2′-Deoxy-2′-fluoro-β-D-arabinofuranosyl)adenine-5′-O-[phenyl(benzoxy-dimethylglycinyl)] Diphosphate Triethylammonium Salt] | 96 | 93 | 51 | 55 | 37 | 80 | 99 | 70 | 92 | 48 | 42 | < 200 | < 200 | 1000 to 5000 | > 10000 | > 10000 | < 200 | 200 to 1000 | < 200 | > 10000 | EC50 (MCF-7): > 10000 nM |
| C[C@H](NP(=O)(Oc1cccc2ccccc12)OP(=O)(O)OC[C@H]1O[C@@H](n2cnc3c(N)nc(Cl)nc32)[C@H](F)C1O)C(=O)OCc1ccccc1 (stereo partly drawn) [Example 17, 2-Chloro-9-(2′-Deoxy-2′-fluoro-β-D-arabinofuranosyl)adenine-5′-O-[1-1-naphthyl(benzoxy-L-alaninyl)] Diphosphate Triethylammonium Salt] | 96 | 88 | 46 | 52 | 37 | 82 | 99 | 69 | 92 | 48 | 47 | < 200 | < 200 | 200 to 1000 | > 10000 | > 10000 | < 200 | 200 to 1000 | < 200 | > 10000 | – |
| CC(C)(NP(=O)(Oc1cccc2ccccc12)OP(=O)(O)OC[C@H]1O[C@@H](n2cnc3c(N)nc(Cl)nc32)[C@H](F)C1O)C(=O)OCc1ccccc1 (stereo partly drawn) [Example 11, 2-Chloro-9-(2′-Deoxy-2′-fluoro-β-D-arabinofuranosyl)adenine-5′-O-[1-naphthyl(benzoxy-dimethylglycinyl)] Diphosphate Triethylammonium Salt] | 96 | 91 | 57 | 58 | 50 | 81 | 99 | 69 | 92 | 47 | 70 | < 200 | < 200 | 1000 to 5000 | > 10000 | > 10000 | < 200 | 200 to 1000 | < 200 | > 10000 | EC50 (MCF-7): > 10000 nM |
